The source made the active and inactive calls. The rule behind the calls is not given here.
How the values were obtained:
Priestia megaterium [1] = experiment: Antimicrobial activity against Bacillus megaterium at 1 mM after 24 hrs by agar diffusion method; assay type: functional, organism-based
Priestia megaterium [2] = experiment: Antimicrobial activity against Bacillus megaterium after 18 hrs by broth microdilution method; assay type: functional, organism-based
Priestia megaterium [3] = experiment: Antimicrobial activity against Bacillus megaterium at > 50 uM by broth microdilution method; assay type: functional, organism-based
[4] = Toxicity in sheep erythrocytes assessed as hemolysis at up to 1000 uM after 20 mins; assay type: cell-based, Ovis aries; conditions: erythrocyte
[5] = Solubility of the compound in 33 % acetonitrile-water; assay type: physicochemical; conditions: buffer
[6] = Toxicity in sheep erythrocytes assessed as hemolysis at up to 100 uM after 20 mins; assay type: cell-based, Ovis aries; conditions: erythrocyte

SMILES | Activity (Priestia megaterium [1]) | Activity (Priestia megaterium [2]) | Activity (Priestia megaterium [3]) | Activity [4] | solubility [5] | Activity [6]
C[C@@H]1NC(=O)[C@@H](CC(C)(C)C)NC(=O)[C@H](C)NC(=O)[C@@H](CC(C)(C)C)NC(=O)[C@@H](CCCCN)NC(=O)[C@@H](CC(C)(C)C)NC(=O)[C@H](C)NC(=O)[C@@H](CC(C)(C)C)NC1=O | inactive | inactive | Active | Non-toxic | – | –
CC(C)(C)C[C@H]1NC(=O)[C@H](CCC(N)=O)NC(=O)[C@@H](CC(C)(C)C)NC(=O)[C@H](CCC(N)=O)NC(=O)[C@@H](CC(C)(C)C)NC(=O)[C@H](CCC(=O)O)NC(=O)[C@@H](CC(C)(C)C)NC(=O)[C@H](CCC(N)=O)NC1=O | – | – | – | – | soluble | –
C[C@H]1NC(=O)[C@H](CC(C)(C)C)NC(=O)[C@@H](C)NC(=O)[C@H](CC(C)(C)C)NC(=O)[C@@H](C)NC(=O)[C@H](CC(C)(C)C)NC(=O)[C@H](CCCCN)NC(=O)[C@H](CC(C)(C)C)NC1=O | inactive | inactive | Active | Non-toxic | – | –
C[C@@H]1NC(=O)[C@@H](CC(C)(C)C)NC(=O)[C@H](C)NC(=O)[C@@H](CC(C)(C)C)NC(=O)[C@H](CCCCN)NC(=O)[C@@H](CC(C)(C)C)NC(=O)[C@H](C)NC(=O)[C@@H](CC(C)(C)C)NC1=O | Active | Active | – | – | – | Non-toxic
CC(C)(C)C[C@@H]1NC(=O)[C@@H](CCC(N)=O)NC(=O)[C@H](CC(C)(C)C)NC(=O)[C@@H](CCC(N)=O)NC(=O)[C@H](CC(C)(C)C)NC(=O)[C@@H](CCC(=O)O)NC(=O)[C@H](CC(C)(C)C)NC(=O)[C@@H](CCC(N)=O)NC1=O | – | – | – | – | soluble | –
C[C@H]1NC(=O)[C@H](CC(C)(C)C)NC(=O)[C@@H](C)NC(=O)[C@H](CC(C)(C)C)NC(=O)[C@@H](CCCCN)NC(=O)[C@H](CC(C)(C)C)NC(=O)[C@@H](C)NC(=O)[C@H](CC(C)(C)C)NC1=O | Active | Active | – | – | – | Non-toxic
